Measurements: PMC6218569, “Structural and Functional Characterization of PA14/Flo5-Like Adhesins From Komagataella pastoris” (Frontiers in Microbiology, 2018)

Columns and labels:
[1] = target: T1, Cea1A (=KpFlo1A) (Komagataella pastoris, UniProt A0A1B2J5V1); assay: ITC and co-crystal structure ([…] Å); assay type: binding
T1 construct: gene ATY40_BA7500007; A domain, D78-E296, N-terminally His6-tagged

[2] = target: T1, Cea1A (=KpFlo1A); assay: ITC and co-crystal structure ([…] Å); assay type: binding; details: read-out: Cea1A•N,N′-diacetylchitobiose
[3] = target: T1, Cea1A (=KpFlo1A); assay: weak binding KD (Supplementary Figure S6), validated by fluorescence titration

T1 sequence (A0A1B2J5V1 entry or part of it): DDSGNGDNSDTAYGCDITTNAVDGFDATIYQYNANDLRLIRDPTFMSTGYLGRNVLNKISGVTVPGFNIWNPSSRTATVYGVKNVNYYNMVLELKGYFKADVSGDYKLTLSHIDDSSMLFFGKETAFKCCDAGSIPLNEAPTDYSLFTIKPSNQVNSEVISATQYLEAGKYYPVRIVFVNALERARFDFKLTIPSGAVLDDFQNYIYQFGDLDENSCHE

`CC(=O)N[C@@H]1[C@@H](O)[C@H](O)[C@@H](CO)O[C@H]1O` [GlcNAc] showed a Kd [1] of 7.67 ± 0.49 µM.
Work on `CC(=O)N[C@H]1[C@H](O[C@H]2[C@H](O)[C@@H](NC(C)=O)C(O)O[C@@H]2CO)O[C@H](CO)[C@@H](O)[C@@H]1O` (stereo partly drawn) [N,N′-diacetylchitobiose] yielded a Kd [2] of 13.1 ± 3.56 µM.
For `OC[C@H]1OC(O)[C@H](O)[C@@H](O)[C@@H]1O` (stereo partly drawn) [glucose], the Kd [3] was 2380 µM.
